This passage reports TGI results from PubChem BioAssay (NCI).

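Interpolation was linear, between the two tested concentrations surrounding the appropriate level; five concentrations were tested over 48 hours in 96-well plates. Definition used: TGI = concentration required for complete inhibition of growth.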

Common to all, as to assay: NCI tumour cell line growth inhibition, 48 h
The subject of assay [1] is SF-295 CNS.
The subject of assay [2] is EKVX NSCLC.
In assay [3] the test system is SNB-75 CNS.
Assay [4] has as its system HCC-2998 colon.
Assay [5] deals with NCI-H460 lung.
Assay [6] concerns NCI/ADR-RES ovarian.
Assay [7] concerns K-562 leukemia.
In assay [8] the test system is HL-60(TB) leukemia.
The subject of assay [9] is SK-OV-3 ovarian.
The test system of assay [10] is COLO 205 colon.
Assay [11] relates to CAKI-1 renal.
Assay [12] deals with SK-MEL-5 melanoma.
Assay [13] deals with OVCAR-8 ovarian.
Assay [14] relates to SF-539 CNS.
Assay [15] concerns UACC-257 melanoma.
In assay [16] the test system is SF-268 CNS.
Assay [17] has as its system A549 NSCLC.
Assay [18] concerns A498 renal.
The subject of assay [19] is PC-3 prostate.
Assay [20] has as its system OVCAR-4 ovarian.

For `C=C1CC2CC(=O)C(O)C(C1)C2` (stereo not given), the TGI in [1], in [2], in assay [3], in assay [4], in assay [5] and in [6] was above 100 µM throughout. Also, the TGI in assay [7], in assay [8], in [9], in assay [10], in assay [11] and in assay [12] was above 100 µM in each case. Moreover, the TGI in assay [13], in assay [14], in assay [15], in assay [16], in assay [17] and in [18] was above 100 µM in each case.

On to `NC(=O)CCC(CCC(N)=O)(CCC(N)=O)[N+](=O)[O-]`, for which the TGI in assay [1], in [2], in [3], in assay [19], in assay [5] and in [6] was above 100 µM each time. Moreover, the TGI in assay [8], in assay [9], in [10], in assay [11], in assay [12] and in assay [13] was above 100 µM throughout. In addition, the TGI in assay [14], in assay [15], in assay [16] and in [17] was above 100 µM throughout.

In the case of `O=C1C(=c2cc3c(c4ccccc24)=NC24CCCCC2C(c2ccccc2)C=C(c2ccccc2)N34)C(=O)c2ccccc21` (stereo not given), the TGI in assay [1], in assay [2], in assay [3], in assay [19], in assay [7] and in assay [8] was above 100 µM throughout. Also, the TGI in assay [9], in assay [10], in assay [11], in assay [12], in assay [13] and in assay [14] was above 100 µM throughout. Further, the TGI in assay [15] is above 100 µM; in assay [20] it was 68.3 µM; in assay [16], above 100 µM; in [17], above 100 µM; in assay [18], above 100 µM.

As to `COC(=O)c1cc(C)ccc1C1CN=NC12Cc1cccc(C)c1C2=O` (stereo not given), the TGI in assay [1] was above 100 µM; in assay [2], 95.6 µM; in assay [3] it was above 100 µM; in assay [4] it was above 100 µM; in assay [5] it was 72.3 µM; in assay [6], 77.9 µM. For the same molecule, the TGI in assay [7] is above 100 µM; in assay [8], 32.8 µM; in [11], above 100 µM; in assay [12], 31.9 µM; in assay [13] it was above 100 µM; in assay [14], above 100 µM. Moreover, the TGI in [15], in assay [20], in assay [16], in assay [17] and in [18] was above 100 µM each time.

For the molecule `COc1ccc2nc3cc([N+](=O)[O-])ccc3c(Nc3ccc(S(=O)(=O)N=C(N)N)cc3)c2c1`, the TGI in [1] is above 100 µM; in assay [2], above 100 µM; in assay [19] it was above 100 µM; in assay [4] it was 39.3 µM; in [5], 25 µM; in [7], 63.1 µM. The TGI is 31.3 µM in assay [8]; above 100 µM in assay [9]; 70.6 µM in assay [10]; above 100 µM in [11]; 36.4 µM in assay [12]; above 100 µM in assay [14]. For the same molecule, the TGI in assay [15], in assay [20], in assay [16], in assay [17] and in assay [18] was above 100 µM in each case.

Turning to `CCC(CCN)(CCN)[N+](=O)[O-]`, the TGI in assay [1], in assay [2], in [3], in assay [19], in assay [5] and in assay [6] was above 100 µM in each case. Moreover, the TGI in assay [7], in assay [8], in [9], in assay [10], in assay [11] and in [12] was above 100 µM each time. The TGI in assay [13], in [14], in assay [15], in assay [16] and in assay [17] was above 100 µM each time.

Consider `COC(=O)C(Cc1c(C2Nc3ccccc3C2CC(NC(C)=O)C(=O)OC)[nH]c2ccccc12)NC(C)=O` (stereo not given), for which the TGI in assay [1], in assay [2], in assay [3], in [19], in [5] and in assay [6] was above 100 µM each time. For the same molecule, the TGI in [7], in [8], in assay [9], in assay [10], in assay [11] and in assay [12] was above 100 µM in each case. Also, the TGI in assay [13], in assay [14], in assay [15], in assay [16], in assay [17] and in assay [18] was above 100 µM throughout.

As for `C=C(Br)C(C)(Br)CCC(Br)C(C)(C)Br` (stereo not given), the TGI in assay [1] is 62 µM; in assay [3], 89.2 µM; in [5] it was above 100 µM; in [7], above 100 µM; in assay [8], 62.3 µM; in [9] it was above 100 µM. Also, the TGI in assay [10] is 35.8 µM; in assay [11], above 100 µM; in assay [12] it was above 100 µM; in assay [13], 33.3 µM; in [14] it was 38.8 µM; in assay [15] it was above 100 µM. The TGI in [20] is above 100 µM; in [16], 91 µM; in assay [17], above 100 µM.
